Experiments:
[1] = system: M. tuberculosis-specific T cells; test: QuantiFERON-TB Gold In-Tube (QFT-GIT) whole blood IFN-γ release assay with immunomodulation by TLR agonists; conditions: for IFN-γ responses compared to the standard assay in anergic subjects / IFN-γ response at intermediate concentration / enhancement of IFN-γ response (median): poly(I:C) 40 μg/ml, imiquimod 2 μg/ml; for IFN-γ responses compared to the standard assay in anergic subjects: P <0.05; for IFN-γ response compared to the standard assay, two concentrations: 8 subjects with LTBI, poly(I:C) 10 and 100 μg/ml, LPS 125 and 500 pg/ml, imiquimod 1 and 5 μg/ml; for enhancement of IFN-γ response (median): vs standard QFT-GIT; for recapitulation of the effects of TLR agonists on the QFT-GIT assay: IL-6 at 200 and 2000 pg/ml, IL-12 at 12.5 and 25 pg/ml, INF-α at 15 and 30 pg/ml, alone or in combination; for kinetics of IFN-γ release: QFT-GIT with immunomodulation vs without, correlated with cytokine induction / APC maturation
From the text: Healthy adults were recruited from the Stanford Hospital clinical laboratories using a protocol approved by the Institutional Review Board. After obtaining in informed consent, volunteers were asked to complete a standardized questionnaire to assess risk factors for TB exposure. LTBI was defined as prior history of positive TST and QFT-GIT and ≧1 risk factor for LTBI. Uninfected control was defined as US born with prior negative TST and QFT-GIT and no risk factors.
The QFT-GIT assay was performed according to package insert with a slight modification described below. Up to 10 μA of each TLR agonist or an equivalent volume of endotoxin-free water was added to each QFT-GIT tube. Blood was collected in a 10 mL Kendall Monoject Green Stopper tube and 1 mL was quickly transferred to each QFT-GIT tube. Tubes were placed in a 3TC incubator for 22 hours or as indicated. ELISA was performed according to package insert. […] Calculation of IFN-γ concentrations was done with the software provided by the manufacturer.
Statistical analyses were performed using the Prism software (Graph Pad, San Diego, Calif.). The Wilcoxon's test of medians was used to compare differences in medians. All statistical tests were computed for a two-sided type I error rate of 5%.

[2] = system: antigen presenting cells; test: Flow cytometry of surface expression of MHC and costimulatory molecules in the QFT-GIT assay; format: cell-based, human; conditions: compared to unstimulated blood cells; LPS 250 pg/ml, poly(I:C) 40 μg/ml; 3 and 6 hours
Experimental: The QFT-GIT tubes were incubated upside down to prevent migration of cells into the gel layer. At the end of incubation 100 μl of 20 mM EDTA was added per tube. Samples were vortexed and incubated at room temperature for 15 minutes. Blood was transferred to a 15 ml polypropylene tube containing 9 ml of 1×FACS™ Lysing Solution (BD Biosciences, Immunocytometry Systems, San Jose, Calif.). Samples were incubated at room temperature for 10 minutes and directly transferred to a −70° C. freezer for storage. The cell surface immune profiling studies were performed at the HIMC. The cells were thawed in warm media, washed once with FACS buffer (PBS supplemented with 2% FBS and 0.1% sodium azide) and resuspended at 1×10^7 viable cells/ml. 5×10^5 cells per well were stained for 45 min at room temperature with the following antibodies: All reagents were purchased from BD Biosciences. Cells were washed three times with FACS buffer, and resuspended in […]. 10,000 cells per sample were collected using DIVA 6.0 software on an LSR11 flow cytometer (BD Biosciences). Data analysis was performed using FlowJo v9.3 by gating on live cells based on forward versus side scatter profiles, then on singlets using forward scatter area versus height, followed by cell subset-specific gating.

[3] = system: blood cells in the Nil tube; test: Cytokine profiling of plasma from the QFT-GIT Nil tube after immunomodulation; format: cell-based, human; conditions: poly(I:C) 40 μg/ml, LPS 250 pg/ml, 22 h
Experimental: Was performed at the Human Immune Monitoring Center (HIMC) at Stanford University. 100 μl of plasma from the QFT-GIT Nil tube was subjected to cytokine profiling. Procarta Cytokine Assay custom 51-plex kit (Affymetrix, Palo Alto, Calif.) was used according to manufacturer's recommendations.

[4] = 8 individuals with histories of LTBI but currently negative QFT-GIT, LPS 250 pg/ml
[5] = subjects with LTBI, LPS 250 pg/ml
[6] = uninfected controls, LPS 250 pg/ml

## CC(C)Cn1cnc2c(N)nc3ccccc3c21 [imiquimod]
[1]; [4]
  IFN-γ responses compared to the standard assay in anergic subjects: significantly increased
[1]
  IFN-γ response compared to the standard assay, two concentrations: dose-dependent enhancement
[1]; [5]
  IFN-γ response at intermediate concentration: significant enhancement
  enhancement of IFN-γ response (median): 3 fold
[1]; [6]
  IFN-γ response at intermediate concentration: not in the uninfected controls

## IL-6: inflammatory cytokine purchased from R&D System
[1]
  recapitulation of the effects of TLR agonists on the QFT-GIT assay: failed to recapitulate

## lipopolysaccharide [LPS]
[1]; 8 individuals with histories of LTBI but currently negative QFT-GIT, cutoff 0.35 IU/ml
  consistency in eliciting a response higher than the cutoff value for the standard assay: most consistent
[1]; [4]
  IFN-γ responses compared to the standard assay in anergic subjects: significantly increased
[1]
  IFN-γ response compared to the standard assay, two concentrations: dose-dependent enhancement
  kinetics of IFN-γ release: earlier and more robust release of IFN-γ
[1]; [5]
  IFN-γ response at intermediate concentration: significant enhancement
  enhancement of IFN-γ response (median): 3.1 fold
[1]; [6]
  magnitude of the IFN-γ responses (TB Ag minus Nil): ≤ 0.5 IU/ml
  IFN-γ response at intermediate concentration: significantly increased
[2]
  surface expression of MHC II and costimulatory molecules in monocytes and partially in B cells and myeloid dendritic cells: increased
[3]
  levels of IL-6, IL-12 p40, IFN-α, and other cytokines: significantly increased

## poly(I:C)
[1]; [4]
  IFN-γ responses compared to the standard assay in anergic subjects: significantly increased
[1]
  IFN-γ response compared to the standard assay, two concentrations: dose-dependent enhancement
  kinetics of IFN-γ release: earlier and more robust release of IFN-γ
[1]; [5]
  IFN-γ response at intermediate concentration: significant enhancement
  enhancement of IFN-γ response (median): 5.7 fold
[1]; [6]
  IFN-γ response at intermediate concentration: not in the uninfected controls
[2]
  surface expression of MHC II and costimulatory molecules in monocytes and partially in B cells and myeloid dendritic cells: not
[3]
  levels of IL-6, IL-12 p40, IFN-α, and other cytokines: significantly increased

B1: IL-12: inflammatory cytokine purchased from R&D System (protein, UniProt P29459 23-219; P29460 23-328, looked up)
Interleukin-12 subunit alpha: RNLPVATPDPGMFPCLHHSQNLLRAVSNMLQKARQTLEFYPCTSEEIDHEDITKDKTSTVEACLPLELTKNESCLNSRETSFITNGSCLASRKTSFMMALCLSSIYEDLKMYQVEFKTMNAKLLMDPKRQIFLDQNMLAVIDELMQALNFNSETVPQKSSLEEPDFYKTKIKLCILLHAFRIRAVTIDRVMSYLNAS
Interleukin-12 subunit beta: IWELKKDVYVVELDWYPDAPGEMVVLTCDTPEEDGITWTLDQSSEVLGSGKTLTIQVKEFGDAGQYTCHKGGEVLSHSLLLLHKKEDGIWSTDILKDQKEPKNKTFLRCEAKNYSGRFTCWWLTTISTDLTFSVKSSRGSSDPQGVTCGAATLSAERVRGDNKEYEYSVECQEDSACPAAEESLPIEVMVDAVHKLKYENYTSSFFIRDIIKPDPPKNLQLKPLKNSRQVEVSWEYPDTWSTPHSYFSLTFCVQVQGKSKREKKDRVFTDKTSATVICRKNASISVRAQDRYYSSSWSEWASVPCS
[1]
  recapitulation of the effects of TLR agonists on the QFT-GIT assay: failed to recapitulate

Source: patent US8771967B2, “Immunomodulation of functional T cell assays for diagnosis of infectious or autoimmune disorders” (priority 2010, dated 2014)
